The target in assay [1] is T1, RIPK1 (Homo sapiens, UniProt Q13546).
T1 sequence (Q13546 1-671): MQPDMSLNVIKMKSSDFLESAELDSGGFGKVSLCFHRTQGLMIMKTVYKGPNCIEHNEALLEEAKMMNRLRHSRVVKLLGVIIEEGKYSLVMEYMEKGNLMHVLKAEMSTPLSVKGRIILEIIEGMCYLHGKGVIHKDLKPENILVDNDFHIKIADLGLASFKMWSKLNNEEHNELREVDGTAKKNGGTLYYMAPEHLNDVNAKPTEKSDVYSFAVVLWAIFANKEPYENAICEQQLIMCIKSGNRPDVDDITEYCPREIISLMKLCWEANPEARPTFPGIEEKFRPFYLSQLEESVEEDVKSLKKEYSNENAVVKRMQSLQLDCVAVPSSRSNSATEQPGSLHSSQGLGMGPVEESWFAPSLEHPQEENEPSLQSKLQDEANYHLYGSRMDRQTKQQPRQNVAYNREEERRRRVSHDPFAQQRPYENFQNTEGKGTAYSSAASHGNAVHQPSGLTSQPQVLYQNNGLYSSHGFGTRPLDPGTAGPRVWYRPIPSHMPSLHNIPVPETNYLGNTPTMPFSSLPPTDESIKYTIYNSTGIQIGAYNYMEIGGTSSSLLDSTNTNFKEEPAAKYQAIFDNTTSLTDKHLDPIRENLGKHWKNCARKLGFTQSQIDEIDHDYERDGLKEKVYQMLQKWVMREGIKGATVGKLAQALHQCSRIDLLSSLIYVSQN
In words: RIPK1 ADP-Glo biochemical kinase assay. The following applies: read-out: RIPK1 ADP-Glo Kinase (IC50). The procedure:
In this example, compounds of the disclosure were evaluated using a biochemical assay using the ADP-Glo™ technology.
ADP-Glo™ (Promega, Madison, WI, USA) reagents were thawed at ambient temperature. Kinase Detection Reagent was prepared by mixing kinase detection buffer with the lyophilized kinase detection substrate.
A […] stock volume of 5× Reaction Kinase Buffer was made by mixing 1000 μl of 1M MgCl2, 500 μl of 1M Tris-HCL pH7.4, 0.5 mg/ml (25 mg) of BSA, and 3475 μl of distilled H2O. A 3 ml 2× working stock volume of Reaction Kinase Buffer was made containing a final concentration of 100 μM DTT and 4 mM MnCl2.
Components of RIPK1 enzyme (Rigel Pharmaceuticals, South San Francisco, CA, USA) were thawed on ice. Diluted RIPK1 was prepared in 1× Kinase Reaction Buffer (diluted from 2× buffer) to 31 ng/well.
1.0 ul of diluted compound was added to a 384 well plate in duplicate. […] The final reaction volume was 5.0 μl.
The plate was quickly centrifuged and the reaction was incubated at 30° C. for 30 minutes. Adding 5 μl of ADP-Glo™ terminated the reaction. The plate was quickly centrifuged and the reaction was incubated at room temperature for 40 minutes. Kinase Detection Reagent was then added and incubated at room temperature for 30 minutes. The relative light unit (RLU) of kinase reaction was determined by luminescent (Luminescence 0.1 s) using a Wallac Victor2 Luminometer (PerkinElmer, Waltham, MA, USA).
A general note: ADP-Glo first removes unused ATP, then detects ADP through luciferase.

For assay [2], the system named is U937 cells. In words: U937 cell necroptosis assay (TNFa + zVAD, CellTiter-Glo recovery). As to conditions: Homo sapiens, U-937, 18 h, TNFa 2 ng/mL + zVAD-fmk, read-out: U937 Zvad TNF CTG Recovery, U937, TNFa + zVAD (IC50). Format: cell-based. As for the experimental part: (§1) In this example, U937 and L929 cells were exposed to compounds of the present disclosure and a cell necroptosis assay was conducted to evaluate the compounds' activity against human RIP1 and murine RIP1.
(§2) U937 and L929 cells were obtained from the American Type Culture Collection (Manassas, VA, USA). Both cells were maintained in logarithmic growth phase in complete RPMI 1640 media (Sigma, ST Louis, MO, USA) supplemented with 10% fetal bovine serum (Sigma, ST Louis, MO, USA) at 37° C. with 5% CO2. For necroptosis assay, L929 cells were plated for 18 h in 100 μL/well medium at 10K cells/well in Costar 96-well black clear-bottom plates (Fisher Scientific, Hampton, NH, USA); U937 cells were plated on the day of the assay in 50 μL/well medium containing 60 uM zVAD-fmk (Lonza, Basel, Switzerland) at 50K cells/well. Medium from L929 cells were removed from the 96-well plates and replaced with 50 μL/well new medium containing 40 uM zVAD-fmk. Each compound of the present disclosure evaluated in this example was serially diluted in DMSO from 2.5 mM in 4-fold dilutions, and then diluted 1:125 in complete medium. 50 μL/well 2× of the compound was then added to the cells in the plates. The cells were pre-incubated with the compound for 1 hour at 37° C. with 5% CO2 and before addition of 10 μL/well 11×TNFa (Peprotech, Rocky Hill, NJ, USA) to give a final concentration of 2 ng/mL for TNFa. The relative amount of necroptosis cells was determined by luminescent using a Wallac Victor2 Luminometer (PerkinElmer, Waltham, MA, USA) and a CellTiter-Glo® Luminescent Cell Viability Reagent Assay (Promega, Madison, WI, USA) added per manufacturer instructions after 18 hours of TNFa stimulation at 37° C. with 5% CO2. This example establishes that embodiments of the compounds described herein have unexpectedly potent activity against human RIP1 and murine RIP1, which allows their assessment in in vivo mouse models of disease.
Background: ATP-based viability assays read luminescence as a measure of living cells.

Assay [3] concerns L929 cells. In words: L929 cell necroptosis assay (TNFa + zVAD, CellTiter-Glo recovery). Format: cell-based, murine. Further details: L929-CTG-recovery, L929, TNFa + zVAD (IC50): unit not given here. As to conditions: TNFa 2 ng/mL + zVAD-fmk; for IC50: Mus musculus, L929, 18 h, read-out: L929-CTG-recovery, L929, TNFa + zVAD (IC50); for L929-CTG-recovery, L929, TNFa + zVAD (IC50): 18 hours. As for the experimental part: as §1, §2

In general, IC50 refers to the concentration at which inhibition is half-maximal.

With `Cc1ccc(Oc2ccnc(C(=O)N[C@H]3COc4ccc(C#CC(C)(C)O)cc4N(C)C3=O)c2)c(C)n1` [I-78, (S)-4-((2,6-dimethylpyridin-3-yl)oxy)-N-(7-(3-hydroxy-3-methylbut-1-yn-1-yl)-5-methyl-4-oxo-2,3,4,5-tetrahydrobenzo[b][1,4]oxazepin-3-yl)picolinamide], the 50% inhibitory concentration (IC50) came out at 36.1 nM in assay [1], 462 nM in assay [2] and 6.78 µM in assay [3].
The matching figures for `CN1C(=O)[C@@H](NC(=O)c2cc(Cc3cccnc3F)ccn2)COc2ccc(C#CC3CCOCC3)cc21` [I-51, (S)-4-((2-fluoropyridin-3-yl)methyl)-N-(5-methyl-4-oxo-7-((tetrahydro-2H-pyran-4-yl)ethynyl)-2,3,4,5-tetrahydrobenzo[b][1,4]oxazepin-3-yl)picolinamide]: 18.3 nM, 0.4 nM and 0.0096 µM.
The matching figures for `CN1C(=O)[C@@H](NC(=O)c2cc(Cc3cccnc3F)ccn2)COc2ccc(C#CC3(O)COC3)cc21` [I-26, (S)-4-((2-fluoropyridin-3-yl)methyl)-N-(7-((3-hydroxyoxetan-3-yl)ethynyl)-5-methyl-4-oxo-2,3,4,5-tetrahydrobenzo[b][1,4]oxazepin-3-yl)picolinamide]: 35.5 nM, 5.3 nM and 0.407 µM.
The matching figures for `CN1C(=O)[C@@H](NC(=O)c2cc(Oc3ccc(F)nc3)ccn2)COc2ccc(C#CC(C)(C)O)cc21` [I-6, (S)-4-((6-fluoropyridin-3-yl)oxy)-N-(7-(3-hydroxy-3-methylbut-1-yn-1-yl)-5-methyl-4-oxo-2,3,4,5-tetrahydrobenzo[b][1,4]oxazepin-3-yl)picolinamide]: 40.9 nM, 49.6 nM and 3.43 µM.
On to `CN1C(=O)[C@@H](NC(=O)n2cc(Cc3ccncc3)cn2)COc2ccc(C#CC(C)(C)O)cc21` [I-29, (S)—N-(7-(3-Hydroxy-3-methylbut-1-yn-1-yl)-5-methyl-4-oxo-2,3,4,5-tetrahydrobenzo[b][1,4]oxazepin-3-yl)-4-(pyridin-4-ylmethyl)-1H-pyrazole-1-carboxamide], for which the IC50 in assay [1] is 69.4 nM; in assay [2], 47.2 nM; in assay [3], 1.72 µM.
The matching figures for `CN1C(=O)[C@@H](NC(=O)n2cc(Cc3ccc(F)nc3F)cn2)COc2ccc(C#CC(C)(C)O)cc21` [I-50, (S)-4-((2,6-Difluoropyridin-3-yl)methyl)-N-(7-(3-hydroxy-3-methylbut-1-yn-1-yl)-5-methyl-4-oxo-2,3,4,5-tetrahydrobenzo[b][1,4]oxazepin-3-yl)-1H-pyrazole-1-carboxamide]: 181 nM, 62.3 nM and 17.7 µM.
Take `CN1C(=O)[C@@H](NC(=O)n2cc(Cc3ccncc3)cn2)COc2ccc(Br)cc21` [I-28, (S)—N-(7-Bromo-5-methyl-4-oxo-2,3,4,5-tetrahydrobenzo[b][1,4]oxazepin-3-yl)-4-(pyridin-4-ylmethyl)-1H-pyrazole-1-carboxamide]: in assay [2], the half-maximal inhibitory concentration (IC50) was 235 nM. For the same compound, the “L929-CTG-recovery, L929, TNFa + zVAD (IC50)” value (“L929-CTG-recovery, L929” for short) in assay [3] is 5027.
Regarding `CN1C(=O)[C@@H](NC(=O)n2cc(Oc3cccc(F)n3)cn2)COc2ccc(C#CC3CCOCC3)cc21` [I-111, (S)-4-((6-Fluoropyridin-2-yl)oxy)-N-(5-methyl-4-oxo-7-((tetrahydro-2H-pyran-4-yl)ethynyl)-2,3,4,5-tetrahydrobenzo[b][1,4]oxazepin-3-yl)-1H-pyrazole-1-carboxamide], the IC50 in assay [2] came to 7270 nM; in assay [3] it was 85.2 µM.
Regarding `CN1C(=O)[C@@H](NC(=O)n2cc(Cc3cccnc3)cn2)COc2ccc(Br)cc21` [I-22, (S)—N-(7-Bromo-5-methyl-4-oxo-2,3,4,5-tetrahydrobenzo[b][1,4]oxazepin-3-yl)-4-(pyridin-3-ylmethyl)-1H-pyrazole-1-carboxamide], the IC50 in assay [2] is 35.1 nM. Also, the “L929-CTG-recovery, L929” value in assay [3] came out at 5004.
For the compound `CN1C(=O)[C@@H](NC(=O)c2cc(Cc3cocn3)ccn2)COc2ccc(C#CC3(O)COC3)cc21` [I-138, (S)—N-(7-((3-hydroxyoxetan-3-yl)ethynyl)-5-methyl-4-oxo-2,3,4,5-tetrahydrobenzo[b][1,4]oxazepin-3-yl)-4-(oxazol-4-ylmethyl)picolinamide], the figures for the IC50 in assay [2] and in assay [3] were 12.9 nM and 0.106 µM, respectively.
Take `CN1C(=O)[C@@H](NC(=O)n2cc(Cc3ccccn3)cn2)COc2ccc(Br)cc21` [I-18, (S)—N-(7-Bromo-5-methyl-4-oxo-2,3,4,5-tetrahydrobenzo[b][1,4]oxazepin-3-yl)-4-(pyridin-2-ylmethyl)-1H-pyrazole-1-carboxamide]: in assay [2], the IC50 was 286 nM. Besides, in assay [3], the “L929-CTG-recovery, L929” value was 5013.
Taken in the same sequence, the figures for `CN1C(=O)[C@@H](NC(=O)n2cc(Cc3cccc(F)n3)cn2)COc2ccc(Br)cc21` [I-20, (S)—N-(7-Bromo-5-methyl-4-oxo-2,3,4,5-tetrahydrobenzo[b][1,4]oxazepin-3-yl)-4-((6-fluoropyridin-2-yl)methyl)-1H-pyrazole-1-carboxamide] were 50.2 nM and 5004.
As for `CN1C(=O)[C@@H](NC(=O)n2cc(Cc3cccc(C(F)(F)F)n3)cn2)COc2ccc(Br)cc21` [I-21, (S)—N-(7-Bromo-5-methyl-4-oxo-2,3,4,5-tetrahydrobenzo[b][1,4]oxazepin-3-yl)-4-((6-(trifluoromethyl)pyridin-2-yl)methyl)-1H-pyrazole-1-carboxamide], the figures for the IC50 in assay [2] and in assay [3] were 1370 nM and 30.4 µM, respectively.
For `CN1C(=O)[C@@H](NC(=O)n2cc(Oc3cccc(F)n3)cn2)COc2ccc(Br)cc21` [I-110, (S)—N-(7-Bromo-5-methyl-4-oxo-2,3,4,5-tetrahydrobenzo[b][1,4]oxazepin-3-yl)-4-((6-fluoropyridin-2-yl)oxy)-1H-pyrazole-1-carboxamide], the IC50 in assay [1] is 6470 nM; in assay [2], 9070 nM.
Taken in the same sequence, the figures for `Cc1noc(C)c1Cc1ccnc(C(=O)N[C@H]2COc3ccc(C#CC(C)(C)O)cc3N(C)C2=O)c1` [I-68, (S)-4-((3,5-dimethylisoxazol-4-yl)methyl)-N-(7-(3-hydroxy-3-methylbut-1-yn-1-yl)-5-methyl-4-oxo-2,3,4,5-tetrahydrobenzo[b][1,4]oxazepin-3-yl)picolinamide] were 467 nM and 7160 nM.

The values are drawn from patent US12156880B2, “Heterocyclic RIP1 kinase inhibitors” (Rigel Pharmaceuticals, Inc., priority 2021, dated 2024).
